Values quoted from earlier work as cited in patent US20210322447A1, “T[…]-DOSING DELIVERY OF PSYCHEDELICS DERIVATIVES” (PIKE THERAPEUTICS, INC., priority 2020, published 2021).

Legend:
central nervous system = conditions: cited from Nelson and Foltz, Anal. Chem. 64, 1578-1585, 1992
[1] = test system: serotonin receptors in the brain; conditions: once ingested; typical duration

Structure (SMILES)	concentration sufficient to induce hallucination (central nervous system) [µg]	duration of mind-altering effects [1]
CCN(CC)C(=O)[C@@H]1C=C2c3cccc4[nH]cc(c34)C[C@H]2N(C)C1 [LSD, 9,10-didehydro-N,N-diethyl-6-methylergoline-80-carboxamide]	20 to 80	
CN(C)CCc1c[nH]c2cccc(OP(=O)(O)O)c12 [psilocybin, [3-(2-dimethylaminoethyl)-1H-indol-4-yl] dihydrogen phosphate]		two to six
